Assay results reported in ChEMBL document CHEMBL6134895, “Strategic Design and Optimization of Umifenovir Analogues: Balancing Antiviral Efficacy and hERG Toxicity against SARS-CoV-2” (J Med Chem, 2025).
Activity calls are given as the source filed them. The rule behind the calls is not given here.

What was measured:
SARS-CoV-2 [1] = assay: Antiviral activity against SARS CoV-2 Wuhan infected in African green monkey Vero E6 cells assessed as virus inactivation at 10 uM pretreated for 15 mins followed by compound removal and induction of viral infection for 1 hr and subsequent removal of inoculum and further addition of media containing compound measured after 48 hrs by RT-qPCR analysis relative to control; assay type: functional, Severe acute respiratory syndrome coronavirus 2; conditions: time 48.25 hrs
SARS-CoV-2 [2] = assay: Antiviral activity against SARS CoV-2 Wuhan infected in African green monkey Vero E6 cells assessed as virus inactivation at 1 uM pretreated for 15 mins followed by compound removal and induction of viral infection for 1 hr and subsequent removal of inoculum and further addition of media containing compound measured after 48 hrs by RT-qPCR analysis relative to control; assay type: functional, Severe acute respiratory syndrome coronavirus 2; conditions: time 48.25 hrs
[3] = (§1) Cytotoxicity against African green monkey Vero E6 cells assessed as cell viability at 5 uM incubated for 48 hrs by MTT assay; assay type: toxicity, cell-based, Vero C1008; conditions: chlorocebus sabaeus, Vero E6 cells, read-out: Activity
Vero C1008 [4] = assay: Cytotoxicity against African green monkey Vero E6 cells assessed as cell viability at 1 uM incubated for 48 hrs by MTT assay; assay type: toxicity, cell-based; conditions: chlorocebus sabaeus, vero c1008, 48 h
SARS-CoV-2 [5] = assay: Antiviral activity against SARS CoV-2 Wuhan infected in African green monkey Vero E6 cells assessed as inhibition of viral replication pretreated for 15 mins followed by compound removal and induction of viral infection for 1 hr and subsequent removal of inoculum and further addition of media containing compound measured after 24 hrs by cell-based ELISA; assay type: functional, organism-based; conditions: for IC50: Severe acute respiratory syndrome coronavirus 2, Wuhan, Vero C1008
[6] = Microsomal stability in mouse liver microsomes assessed as half life at 100 uM preincubated for 15 mins followed by NADPH addition measured up to 60 mins by LC-MS/MS analysis; assay type: ADME, Microsome; conditions: time < 75 min
[7] = Microsomal stability in mouse liver microsomes assessed as compound remaining at 100 uM preincubated for 15 mins followed by NADPH addition measured after 60 mins by LC-MS/MS analysis; assay type: ADME, Microsome; conditions: time 75 min, read-out: Stability
[8] = Stability in mouse plasma assessed as half life at 2 uM measured up to 120 mins by LC-MS/MS analysis; assay type: ADME, cell-free
[9] = Lipophilicity, LogD of compound in sodium phosphate buffer/n-octanol incubated for 3 hrs by LC-UV analysis; assay type: physicochemical
[10] = Stability in human plasma assessed as compound remaining at 2 uM measured after 60 mins by LC-MS/MS analysis; assay type: ADME, cell-free; conditions: read-out: Stability
Vero C1008 [11] = assay: as §1; assay type: toxicity, cell-based; conditions: chlorocebus sabaeus, vero c1008, 48 h, 5 µM
SARS-CoV-2 [12] = assay: Antiviral activity against SARS CoV-2 Wuhan infected in African green monkey Vero E6 cells assessed as decrease in viral particles at 0.7 uM incubated for 48 hrs by confocal microscopy; assay type: functional, organism-based; conditions: Severe acute respiratory syndrome coronavirus 2
[13] = Microsomal stability in human liver microsomes assessed as intrinsic clearance measured per mg protein at 100 uM preincubated for 15 mins followed by NADPH addition measured up to 60 mins by LC-MS/MS analysis; assay type: ADME, Microsome; conditions: time < 75 min, read-out: CLH
[14] = Microsomal stability in human liver microsomes assessed as half life at 100 uM preincubated for 15 mins followed by NADPH addition measured up to 60 mins by LC-MS/MS analysis; assay type: ADME, Microsome; conditions: time < 75 min
SARS-CoV-2 [15] = assay: Antiviral activity against SARS CoV-2 Wuhan infected in African green monkey Vero E6 cells assessed as decrease in spike protein expression at 0.7 uM incubated for 48 hrs by immunofluorescence based analysis; assay type: functional, organism-based; conditions: Severe acute respiratory syndrome coronavirus 2
[16] = Stability in human plasma assessed as half life at 2 uM measured up to 120 mins by LC-MS/MS analysis; assay type: ADME, cell-free
[17] = Microsomal stability in human liver microsomes assessed as compound remaining at 100 uM preincubated for 15 mins followed by NADPH addition measured after 60 mins by LC-MS/MS analysis; assay type: ADME, Microsome; conditions: time 75 min, read-out: Stability
[18] = Stability in mouse plasma assessed as compound remaining at 2 uM measured after 60 mins by LC-MS/MS analysis; assay type: ADME, cell-free; conditions: read-out: Stability
[19] = Microsomal stability in mouse liver microsomes assessed as intrinsic clearance measured per mg protein at 100 uM preincubated for 15 mins followed by NADPH addition measured up to 60 mins by LC-MS/MS analysis; assay type: ADME, Microsome; conditions: time < 75 min, read-out: CLH
SARS-CoV-2 [20] = assay: Potency index, ratio of Arbidol IC50 to test compound IC50 for antiviral activity against SARS CoV-2 Wuhan infected in African green monkey Vero E6 cells assessed as inhibition of viral replication pretreated for 15 mins followed by compound removal and induction of viral infection for 1 hr and subsequent removal of inoculum and further addition of media containing compound measured after 24 hrs …; assay type: functional, Severe acute respiratory syndrome coronavirus 2; conditions: time 24.25 hrs
[21] = target: T1, Voltage-gated inwardly rectifying potassium channel KCNH2 (Homo sapiens, UniProt Q12809); assay: Inhibition of hERG extracted from membrane (unknown origin) incubated for 4 hrs by fluorescence polarization assay; assay type: toxicity, cell membranes
T1 sequence (Q12809 whole entry): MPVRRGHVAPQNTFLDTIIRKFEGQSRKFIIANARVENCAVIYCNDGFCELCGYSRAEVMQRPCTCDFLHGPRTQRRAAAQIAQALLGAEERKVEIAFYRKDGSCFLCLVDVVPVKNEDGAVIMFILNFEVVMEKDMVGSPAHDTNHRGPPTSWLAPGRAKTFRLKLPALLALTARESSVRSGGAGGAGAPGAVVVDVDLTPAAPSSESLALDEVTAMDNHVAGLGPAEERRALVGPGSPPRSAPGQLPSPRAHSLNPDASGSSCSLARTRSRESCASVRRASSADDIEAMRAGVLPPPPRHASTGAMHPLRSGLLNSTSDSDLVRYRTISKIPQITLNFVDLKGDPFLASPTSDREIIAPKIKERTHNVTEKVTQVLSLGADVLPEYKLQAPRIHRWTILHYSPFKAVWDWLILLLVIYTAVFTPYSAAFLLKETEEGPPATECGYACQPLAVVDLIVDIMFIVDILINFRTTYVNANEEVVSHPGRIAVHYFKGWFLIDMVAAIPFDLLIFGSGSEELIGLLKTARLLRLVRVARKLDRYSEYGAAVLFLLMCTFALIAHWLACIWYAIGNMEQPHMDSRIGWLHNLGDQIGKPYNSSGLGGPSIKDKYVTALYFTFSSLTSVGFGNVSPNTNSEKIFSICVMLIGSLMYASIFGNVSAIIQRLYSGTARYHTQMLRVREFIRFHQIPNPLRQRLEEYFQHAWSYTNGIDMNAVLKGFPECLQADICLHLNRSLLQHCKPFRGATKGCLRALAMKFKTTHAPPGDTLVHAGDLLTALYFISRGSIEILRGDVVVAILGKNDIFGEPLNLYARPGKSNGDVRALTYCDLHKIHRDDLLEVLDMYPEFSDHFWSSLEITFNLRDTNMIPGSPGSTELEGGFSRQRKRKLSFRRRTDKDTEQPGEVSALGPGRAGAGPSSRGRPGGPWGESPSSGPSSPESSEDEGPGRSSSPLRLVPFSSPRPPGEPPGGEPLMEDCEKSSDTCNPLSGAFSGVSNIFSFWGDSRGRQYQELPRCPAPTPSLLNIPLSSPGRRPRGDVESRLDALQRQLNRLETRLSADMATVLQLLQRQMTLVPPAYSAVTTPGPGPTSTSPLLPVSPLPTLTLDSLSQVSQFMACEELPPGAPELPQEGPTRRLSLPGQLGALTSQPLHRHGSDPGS

SARS-CoV-2 [22] = assay: Antiviral activity against SARS CoV-2 Wuhan infected in African green monkey Vero E6 cells assessed as decrease in green fluorescence at 0.7 uM incubated for 48 hrs by confocal microscopy; assay type: functional, organism-based; conditions: Severe acute respiratory syndrome coronavirus 2
[23] = AUC (0 to infinity) in female C57BL/6 mouse at 2 mg/kg, iv; assay type: ADME, organism-based; conditions: in vivo
[24] = Cmax in female C57BL/6 mouse at 20 mg/kg, po; assay type: ADME, organism-based; conditions: in vivo
[25] = AUC (0 to infinity) in female C57BL/6 mouse at 20 mg/kg, po; assay type: ADME, organism-based; conditions: in vivo
[26] = Volume of distribution at steady state in female C57BL/6 mouse at 2 mg/kg, iv; assay type: ADME, organism-based; conditions: in vivo, read-out: Vdss
[27] = Half life in female C57BL/6 mouse at 2 mg/kg, iv; assay type: ADME, organism-based; conditions: in vivo
[28] = Tmax in female C57BL/6 mouse at 20 mg/kg, po; assay type: ADME, organism-based; conditions: in vivo
[29] = Oral bioavailability in female C57BL/6 mouse at 20 mg/kg; assay type: ADME, organism-based; conditions: in vivo
SARS-CoV-2 [30] = assay: Antiviral activity against SARS CoV-2 Wuhan infected in African green monkey Vero E6 cells assessed as decrease in spike protein expression at 0.5 uM incubated for 48 hrs by immunofluorescence based analysis; assay type: functional, organism-based; conditions: Severe acute respiratory syndrome coronavirus 2
[31] = Clearance in female C57BL/6 mouse at 2 mg/kg, iv; assay type: ADME, organism-based; conditions: in vivo
SARS-CoV-2 [32] = assay: Antiviral activity against SARS CoV-2 Wuhan infected in African green monkey Vero E6 cells assessed as decrease in green fluorescence at 0.5 uM incubated for 48 hrs by confocal microscopy; assay type: functional, organism-based; conditions: Severe acute respiratory syndrome coronavirus 2
SARS-CoV-2 [33] = assay: Antiviral activity against SARS CoV-2 Wuhan infected in African green monkey Vero E6 cells assessed as decrease in viral particles at 0.5 uM incubated for 48 hrs by confocal microscopy; assay type: functional, organism-based; conditions: Severe acute respiratory syndrome coronavirus 2
SARS-CoV-2 [34] = assay: Antiviral activity against SARS CoV-2 Wuhan infected in African green monkey Vero E6 cells assessed as virus inactivation at 5 uM pretreated for 15 mins followed by compound removal and induction of viral infection for 1 hr and subsequent removal of inoculum and further addition of media containing compound measured after 48 hrs by RT-qPCR analysis relative to control; assay type: functional, Severe acute respiratory syndrome coronavirus 2; conditions: time 48.25 hrs
[35] = target: T1, Voltage-gated inwardly rectifying potassium channel KCNH2; assay: Inhibition of hERG; assay type: toxicity

SMILES	half-life at 100 µM [6] [min]	remaining at 1 h, 100 µM [7] [%]	half-life at 2 µM [8] [min]	logD at 3 h [9]	remaining at 1 h, 2 µM [10] [%]	Activity (Vero C1008 [11])	IC50 (SARS-CoV-2 [5]) [nM]	microsomal CLint at 100 µM [13] [µL/min/mg]	half-life at 100 µM [14] [min]	half-life at 2 µM [16] [min]	remaining at 1 h, 100 µM [17] [%]	remaining at 1 h, 2 µM [18] [%]	microsomal CLint at 100 µM [19] [µL/min/mg]	Ratio IC50 (SARS-CoV-2 [20])	IC50 [21] [nM]	further results
CCOC(=O)c1c(CSc2ccc(C)cc2C)n(C)c2cc(Br)c(O)cc12																Activity (SARS-CoV-2 [1]): >99.9%; Activity (SARS-CoV-2 [2]): >95%; viability at 48 h, 5 µM [3]: 85%; Activity (Vero C1008 [4]): Non-toxic; inhibition (SARS-CoV-2 [5]; Severe acute respiratory syndrome coronavirus 2, time 24.25 hrs): inactive
Cc1ccc(Cn2c(CSc3c(C)cc(C)cc3C)c(C(=O)Nc3cnn(C)c3)c3cc(O)c(Br)cc32)cc1	22.1	18	52.2	1.93	28.6	Non-toxic	700	28.3	24.5	42	16.5	42.5	25.8	~13	> 30000	Activity (SARS-CoV-2 [12]): Active; Activity Was Comparable To Remdesivir; Activity (SARS-CoV-2 [15]): Active; Activity (SARS-CoV-2 [22]): Active
Cc1ccc(Cn2c(CSc3c(C)cc(C)cc3C)c(C(=O)N3CCC(N4CCOCC4)CC3)c3cc(O)c(Br)cc32)cc1	26.9	14.7	53.5	2.45	27.1	Non-toxic	670	35	19.8	41.1	11.4	44	31.3	~13	15900	AUC(0-inf) [23]: 352 ng·h/mL; Cmax [24]: 148 ng/mL; AUC(0-inf) [25]: 1190 ng·h/mL; Vd [26]: 13.4 L/kg; half-life [27]: 86.4 min; Tmax [28]: 120 min; bioavailability [29]: 33.9%; Activity (SARS-CoV-2 [30]): Active; clearance [31]: 92.4 mL/min/kg; Activity (SARS-CoV-2 [32]): Active; Activity (SARS-CoV-2 [33]): Active; Activity Was Comparable To Remdesivir
CCOC(=O)c1c(CSc2ccccc2)n(C)c2cc(Br)c(O)c(CN(C)C)c12 [UMIFENOVIR]						Non-toxic	9000								540	Activity (SARS-CoV-2 [34]): <90%; IC50 [35]: 540 nM
